Reference: publication PMC9535023, “Inhibition of phospholipase D1 induces immunogenic cell death and potentiates cancer immunotherapy in colorectal cancer” (Experimental & Molecular Medicine, 2022)

What was measured:
[1] = test system: PLD; assay: PLD activity assay in HCT 116 cells; type: cell-based; conditions: at 10 μM (Fig. 1c)
Procedure: (§1) Cells were labeled with [H^3] myristic acid, and PLD activity was assessed by measuring the formation of [H^3] phosphatidylbutanol, which is the product of PLD-mediated transphosphatidylation, in the presence of 1-butanol, as previously described.

[2] = test system: PLD; assay: PLD activity assay in DLD1 cells; type: cell-based; conditions: compared to unsubstituted congener
Procedure: as §1

[3] = biological target: T1, PLD1 (Homo sapiens, UniProt Q13393); assay: Streptavidin pull-down assay, PLD1; type: binding; conditions: 10 μM, various CRC cell lysates
T1 construct: endogenous in cells
T1 sequence (Q13393 1-1074): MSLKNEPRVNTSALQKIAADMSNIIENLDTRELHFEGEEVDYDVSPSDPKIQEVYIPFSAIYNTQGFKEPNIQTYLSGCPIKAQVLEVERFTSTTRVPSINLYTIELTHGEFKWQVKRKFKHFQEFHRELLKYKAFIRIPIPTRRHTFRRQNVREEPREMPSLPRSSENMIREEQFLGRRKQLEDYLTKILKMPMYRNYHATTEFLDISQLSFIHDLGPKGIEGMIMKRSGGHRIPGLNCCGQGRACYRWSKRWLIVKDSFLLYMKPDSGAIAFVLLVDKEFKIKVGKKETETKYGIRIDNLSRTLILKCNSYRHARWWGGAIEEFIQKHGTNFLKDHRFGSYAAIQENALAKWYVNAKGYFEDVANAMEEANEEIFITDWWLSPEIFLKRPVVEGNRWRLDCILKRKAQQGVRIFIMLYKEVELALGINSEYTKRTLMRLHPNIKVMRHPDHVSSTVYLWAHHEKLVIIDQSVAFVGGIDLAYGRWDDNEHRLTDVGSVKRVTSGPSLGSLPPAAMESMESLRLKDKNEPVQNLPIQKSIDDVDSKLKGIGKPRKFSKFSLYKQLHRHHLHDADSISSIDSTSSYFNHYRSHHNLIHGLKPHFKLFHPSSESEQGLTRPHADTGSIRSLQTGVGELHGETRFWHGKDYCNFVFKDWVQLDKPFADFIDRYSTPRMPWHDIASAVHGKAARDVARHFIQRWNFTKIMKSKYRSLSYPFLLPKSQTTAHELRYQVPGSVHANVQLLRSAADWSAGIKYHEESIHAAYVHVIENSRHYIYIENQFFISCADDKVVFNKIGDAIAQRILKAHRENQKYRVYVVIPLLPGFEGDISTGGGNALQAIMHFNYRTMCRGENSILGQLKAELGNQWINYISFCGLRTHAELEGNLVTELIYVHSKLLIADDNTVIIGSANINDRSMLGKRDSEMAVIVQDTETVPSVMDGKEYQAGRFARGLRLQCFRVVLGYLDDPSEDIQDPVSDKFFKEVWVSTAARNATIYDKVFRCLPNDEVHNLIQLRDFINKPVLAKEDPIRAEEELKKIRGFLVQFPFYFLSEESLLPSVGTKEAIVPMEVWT
Procedure: Cells were lysed in passive lysis buffer (Promega). Cell lysates were incubated with biotinylated chemicals (A4333, 10 μM) or biotin (10 μM) at 37 °C for 1 h and treated with streptavidin beads (Thermo Scientific) at 20 °C for 1 h. After removing free biotinylated chemicals by washing with PBS, the samples were subjected to SDS‒PAGE followed by immunoblotting with an antibody against PLD[20].

[4] = test system: DLD1 cells; assay: Apoptosis assay (annexin V flow cytometry), DLD1; type: cell-based
Procedure: (§2) For cell cycle analysis, the cells were treated with Α3373 or 5-FU. The cells were labeled with 10 μΜ bromodeoxyuridine (BrdU) for 2 h. Subsequently, the cells were stained with 7-aminoactinomycin D (7-AAD, Invitrogen) and a fluorescein isothiocyanate (FITC)-conjugated anti-BrdU antibody (Invitrogen). Apoptotic cells were detected using an Annexin V-FITC Apoptosis Detection Kit (BD Biosciences). The cells were analyzed using BD FACSAria III (BD Biosciences), and data analysis was performed using FlowJo v10.0 (BD Biosciences).

[5] = test system: FHC cells; assay: Cell cycle analysis (BrdU/7-AAD flow cytometry), FHC; type: cell-based; conditions: FHC normal fetal colonic mucosa cells
Procedure: as §2

[6] = test system: DLD1 cells; assay: Cell cycle analysis (BrdU/7-AAD flow cytometry), DLD1; type: cell-based
Procedure: as §2

[7] = test system: FHC cells; assay: Apoptosis assay (annexin V flow cytometry), FHC; type: cell-based
Procedure: as §2

C[C@@H](CN1CCC(n2c(=O)[nH]c3cc(Cl)ccc32)CC1)NC(=O)c1ccc2ccccc2c1 [VU0155069, reference compound]
PLD activity remained [1]: 30.4%

O=C(CCCC[C@@H]1SC[C@@H]2NC(=O)N[C@@H]21)NNC(=O)c1ccc2[nH]c(C(=O)Nc3cc(C(F)(F)F)cc(C(F)(F)F)c3)cc2c1 [Compound A4333]
PLD inhibition, in words [2]: still potent for PLD inhibition | interaction with PLD1 (pull-down) [3]: interacted with PLD1

O=c1[nH]cc(F)c(=O)[nH]1 [Compound 5-FU, 5-fluorouracil, reference compound]
apoptosis of CRC cells, in words [4]: increased the apoptosis of both CRC and FHC cells | cell cycle / S phase in FHC cells, in words [5]: decreased the S phase population | cell cycle / proliferation of CRC cells, in words [6]: decreased the S phase population | apoptosis of FHC cells, in words [7]: increased the apoptosis of both CRC and FHC cells
